SMILES strings stand for the structures. “And” between values parts separate entries of the source, which are not always exact repeats. Equal entries are not always repeated.

Assay [1] has as its target T1, BCL-2/PROTAC/VCB ternary complex (Homo sapiens, UniProt P10415+P40337).
T1 construct: pGEX-6P-1-VHL(54-213) (pDL2200) was constructed through Gibson assembly method; made in house; host or cells: bacterial culture (LB broth, IPTG induction)
Description: AlphaLISA ternary complex formation, cell-free, BCL-2. The settings on record: for in vitro ternary complex formation with BCL-2 (in words): AlphaLISA, cell-free, Fig. 2d, 3f; for Alpha (Alpha Endpoint read, Bcl-2 ternary complex formation): raw plate signal, duplicate wells; for AlphaLISA signal, BCL-2/PROTAC/VCB: Fig. 2d raw Alpha reads. The assay is classed as binding. In outline: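 Cell-free AlphaLISA: 5 nM His-tagged BCL-xL or BCL-2 plus 5 nM GST-VCB incubated with fourfold serially diluted compound 30 min at room temperature. Glutathione donor and His acceptor beads (20 µg/ml each) then added for 15 and 45 min; AlphaLISA signal plotted against compound concentration.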
In general terms: Alpha assays give light when donor and acceptor beads are brought close together.

Assay [2] concerns BCL-xL/PROTAC/VCB ternary complex (HiBit-BCL-xL, HaloTag-VHL). In words: NanoBRET intracellular ternary complex formation in 293T cells, BCL-xL. The settings on record: for nanoBRET ratio (610/450, background-subtracted), Ave, Bcl-xl: Ave of Read2 and Read3; for nanoBRET ratio (610/450, background-subtracted), Ave, Bcl-xl / nanoBRET ratio (610/450, background-subtracted), Read2, Bcl-xl / nanoBRET ratio (610/450, background-subtracted), Read3, Bcl-xl: triplicate wells; for intracellular ternary complex formation with BCL-xL (in words): NanoBRET, 293T cells, 6 h. The assay is classed as cell-based, human. In outline: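 293T cells were transfected with HiBit-BCL-xL or HiBit-BCL-2 plus HaloTag-VHL and incubated overnight with or without HaloTag NanoBRET 618 ligand in 4% FBS Opti-MEM. Serially diluted compounds were applied for 6 h at 37 °C. mBRET ratio from donor emission (450/50 nm) and acceptor emission (610 nm longpass) after Nano-Glo substrate.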
Background: BRET reads energy transfer from a luciferase to a nearby fluorophore.

Where [3] appears, read: compound 200000 nM, 2 technical replicates.

T1 sequence (P10415 1-211 limits assumed): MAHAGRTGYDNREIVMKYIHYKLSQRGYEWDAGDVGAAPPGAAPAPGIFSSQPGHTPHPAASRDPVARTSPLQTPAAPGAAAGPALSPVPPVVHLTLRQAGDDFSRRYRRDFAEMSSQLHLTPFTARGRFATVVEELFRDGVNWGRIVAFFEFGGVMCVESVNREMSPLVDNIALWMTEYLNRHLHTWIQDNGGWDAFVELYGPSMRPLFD
T1 sequence (P40337 54-213 limits assumed): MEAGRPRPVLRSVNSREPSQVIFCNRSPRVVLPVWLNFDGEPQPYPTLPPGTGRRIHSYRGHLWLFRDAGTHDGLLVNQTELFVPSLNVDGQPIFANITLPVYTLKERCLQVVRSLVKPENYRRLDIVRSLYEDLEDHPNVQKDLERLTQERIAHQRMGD
T1 sequence (Q15369 17-112 partner limits assumed): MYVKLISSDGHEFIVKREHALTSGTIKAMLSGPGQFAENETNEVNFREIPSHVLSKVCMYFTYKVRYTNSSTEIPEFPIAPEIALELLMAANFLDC
T1 sequence (Q15370 whole entry partner): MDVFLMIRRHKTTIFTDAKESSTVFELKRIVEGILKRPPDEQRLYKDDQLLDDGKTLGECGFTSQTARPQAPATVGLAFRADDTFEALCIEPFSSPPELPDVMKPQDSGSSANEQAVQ

With `Cc1ncsc1-c1ccc([C@H](C)NC(=O)[C@@H]2C[C@@H](O)CN2C(=O)[C@@H](NC(=O)CCCCCCC(=O)N2CCN(C[C@]3(C)CCC(c4ccc(Cl)cc4)=C(CN4CCN(c5ccc(C(=O)NS(=O)(=O)c6ccc(N[C@H](CCN7CCOCC7)CSc7ccccc7)c(S(=O)(=O)C(F)(F)F)c6)cc5)CC4)C3)CC2)C(C)(C)C)cc1` [753b], the “in vitro ternary complex formation with BCL-2 (in words)” value (“in vitro ternary complex formation” below) in assay [1] was “stronger ternary complexes with BCL-xL/2 than those by 753a and DT2216”. In addition, the “Alpha (Alpha Endpoint read, Bcl-2 ternary complex formation)” value in assay [1] (Conc. 0.0762939 nM) is 175483 and 157446; in assay [1] (Conc. 0.305176 nM) it was 174555 and 132830; in assay [1] (Conc. 1.2207 nM) it was 345223 and 378556; in assay [1] (Conc. 4.88281 nM) it was 1458903 and 1528033; in assay [1] (Conc. 19.5312 nM) it was 3478424 and 3254843; in assay [1] (Conc. 78.125 nM) it was 2950431 and 3084677. Further, the “Alpha (Alpha Endpoint read, Bcl-2 ternary complex formation)” value in assay [1] (Conc. 312.5 nM) was 1886162 and 2006989; in assay [1] (Conc. 1250 nM), 474662 and 509499; in assay [1] (Conc. 5000 nM), 83238 and 74082; in assay [1] (Conc. 20000 nM) it was 44557 and 25949. In addition, the “nanoBRET ratio (610/450, background-subtracted), Ave, Bcl-xl” value in assay [2] (0.004 uM) was 6.669 and 7.034 and 7.222; in assay [2] (0.012 uM), 7.369 and 7.678 and 8.359; in assay [2] (0.111 uM), 9.509 and 8.705 and 10.1696; in assay [2] (0.333 uM) it was 10.2723 and 9.168 and 8.741; in assay [2] (1 uM) it was 8.944 and 10.7233 and 9.842; in assay [2] (3 uM), 8.924 and 8.687 and 9.846. Besides, the “nanoBRET ratio (610/450, background-subtracted), Read2, Bcl-xl” value in assay [2] (0.004 uM) is 6.7548 and 7.529 and 7.533; in assay [2] (0.012 uM), 7.541 and 7.384 and 8.298; in assay [2] (0.111 uM), 10.2238 and 9.035 and 9.873; in assay [2] (0.333 uM) it was 10.5785 and 8.953 and 8.643; in assay [2] (1 uM), 9.3741 and 12.2305 and 10.3071; in assay [2] (3 uM) it was 9.65 and 9.358 and 10.5304. Further, the “nanoBRET ratio (610/450, background-subtracted), Read3, Bcl-xl” value in assay [2] (0.004 uM) was 6.584 and 6.539 and 6.911; in assay [2] (0.012 uM), 7.198 and 7.973 and 8.421; in assay [2] (0.111 uM) it was 8.794 and 8.375 and 10.4663; in assay [2] (0.333 uM) it was 9.9661 and 9.383 and 8.84; in assay [2] (1 uM), 8.514 and 9.216 and 9.3776; in assay [2] (3 uM) it was 8.197 and 8.015 and 9.162. For the same compound, in assay [2], the “intracellular ternary complex formation with BCL-xL (in words)” value (“intracellular ternary complex formation” below) is “much higher activity to induce the ternary complex formation with both BCL-xL and BCL-2 relative to 753a”.

Turning to `Cc1ncsc1-c1ccc([C@H](C)NC(=O)[C@@H]2C[C@@H](O)CN2C(=O)[C@@H](NC(=O)CCCCC(=O)N2CCN(CC3(C)CCC(c4ccc(Cl)cc4)=C(CN4CCN(c5ccc(C(=O)NS(=O)(=O)c6ccc(N[C@H](CCN7CCOCC7)CSc7ccccc7)c(S(=O)(=O)C(F)(F)F)c6)cc5)CC4)C3)CC2)C(C)(C)C)cc1` (stereo partly drawn) [PPC6], the “in vitro ternary complex formation” value in assay [1] is reported as “stronger ternary complexes”. Moreover, the “AlphaLISA signal, BCL-2/PROTAC/VCB” value in assay [1] (compound 0.191 nM) was 16425 and 15906; in assay [1] (compound 0.763 nM), 18031 and 17435; in assay [1] (compound 3.052 nM) it was 30431 and 31755; in assay [1] (compound 12.207 nM), 272991 and 264284; in assay [1] (compound 48.828 nM), 1222232 and 1254048; in assay [1] (compound 195.31 nM), 1139558 and 1151559. Moreover, the “AlphaLISA signal, BCL-2/PROTAC/VCB” value in assay [1] (compound 781.25 nM) is 1076543 and 1153682; in assay [1] (compound 3125 nM), 286448 and 313784; in assay [1] (compound 12500 nM) it was 33420 and 31990; in assay [1] (compound 50000 nM), 13658 and 13269; in assay [1] (setting [3]), 8289 and 7903. The “intracellular ternary complex formation” value in assay [2] is recorded as “stronger BCL-xL/PROTAC/VHL-EloC-EloB (VCB) ternary complexes”.

With `Cc1ncsc1-c1ccc([C@H](C)NC(=O)[C@@H]2C[C@@H](O)CN2C(=O)[C@@H](NC(=O)CCCCCC(=O)N2CCN(CC3(C)CCC(c4ccc(Cl)cc4)=C(CN4CCN(c5ccc(C(=O)NS(=O)(=O)c6ccc(N[C@H](CCN7CCOCC7)CSc7ccccc7)c(S(=O)(=O)C(F)(F)F)c6)cc5)CC4)C3)CC2)C(C)(C)C)cc1` (stereo partly drawn) [PPC7], the “in vitro ternary complex formation” value in assay [1] is “stronger ternary complexes”. The “AlphaLISA signal, BCL-2/PROTAC/VCB” value in assay [1] (compound 0.763 nM) is 20141 and 15109; in assay [1] (compound 3.052 nM), 29796 and 29041; in assay [1] (compound 12.207 nM), 146984 and 135341; in assay [1] (compound 48.828 nM), 1032585 and 1008497; in assay [1] (compound 195.31 nM) it was 1592216 and 1719187; in assay [1] (compound 781.25 nM), 1513830 and 1470142. Also, the “AlphaLISA signal, BCL-2/PROTAC/VCB” value is 403994 and 403317 in assay [1] (compound 3125 nM); 43692 and 35758 in assay [1] (compound 12500 nM); 12115 and 13570 in assay [1] (compound 50000 nM); 14257 and 11084 in assay [1] (setting [3]). In addition, the “intracellular ternary complex formation” value in assay [2] is listed as “stronger BCL-xL/PROTAC/VHL-EloC-EloB (VCB) ternary complexes”.

For the compound `Cc1ncsc1-c1ccc([C@H](C)NC(=O)[C@@H]2C[C@@H](O)CN2C(=O)[C@@H](NC(=O)CCCCCCC(=O)N2CCN(CC3(C)CCC(c4ccc(Cl)cc4)=C(CN4CCN(c5ccc(C(=O)NS(=O)(=O)c6ccc(N[C@H](CCN7CCOCC7)CSc7ccccc7)c(S(=O)(=O)C(F)(F)F)c6)cc5)CC4)C3)CC2)C(C)(C)C)cc1` (stereo partly drawn) [PPC8], in assay [1], the “in vitro ternary complex formation” value is listed as “stronger ternary complexes”. The “AlphaLISA signal, BCL-2/PROTAC/VCB” value was 15495 and 15269 in assay [1] (compound 0.191 nM); 16981 and 16694 in assay [1] (compound 0.763 nM); 31764 and 30263 in assay [1] (compound 3.052 nM); 220610 and 232235 in assay [1] (compound 12.207 nM); 1164349 and 1304184 in assay [1] (compound 48.828 nM); 1706795 and 1639825 in assay [1] (compound 195.31 nM). Besides, the “AlphaLISA signal, BCL-2/PROTAC/VCB” value in assay [1] (compound 781.25 nM) is 1791615 and 1848085; in assay [1] (compound 3125 nM), 524010 and 562226; in assay [1] (compound 12500 nM), 80335 and 78686; in assay [1] (compound 50000 nM), 17935 and 18240; in assay [1] (setting [3]) it was 8109 and 11043. Also, in assay [2], the “intracellular ternary complex formation” value is recorded as “stronger BCL-xL/PROTAC/VHL-EloC-EloB (VCB) ternary complexes”.

For the compound `Cc1ncsc1-c1ccc([C@H](C)NC(=O)[C@@H]2C[C@@H](O)CN2C(=O)[C@@H](NC(=O)CCCCCCCC(=O)N2CCN(CC3(C)CCC(c4ccc(Cl)cc4)=C(CN4CCN(c5ccc(C(=O)NS(=O)(=O)c6ccc(N[C@H](CCN7CCOCC7)CSc7ccccc7)c(S(=O)(=O)C(F)(F)F)c6)cc5)CC4)C3)CC2)C(C)(C)C)cc1` (stereo partly drawn) [PPC9], the “in vitro ternary complex formation” value in assay [1] is given as “much weaker ternary complexes”. The “AlphaLISA signal, BCL-2/PROTAC/VCB” value is 13571 and 17652 in assay [1] (compound 0.191 nM); 17336 and 18248 in assay [1] (compound 0.763 nM); 22108 and 21304 in assay [1] (compound 3.052 nM); 71357 and 62189 in assay [1] (compound 12.207 nM); 336659 and 328291 in assay [1] (compound 48.828 nM); 357647 and 419151 in assay [1] (compound 195.31 nM). Further, the “AlphaLISA signal, BCL-2/PROTAC/VCB” value is 267337 and 283839 in assay [1] (compound 781.25 nM); 78279 and 78565 in assay [1] (compound 3125 nM); 15094 and 15494 in assay [1] (compound 12500 nM); 7032 and 8982 in assay [1] (compound 50000 nM); 9255 and 9885 in assay [1] (setting [3]). Besides, in assay [2], the “intracellular ternary complex formation” value is reported as “stronger BCL-xL/PROTAC/VHL-EloC-EloB (VCB) ternary complexes”.

Values taken from paper PMC8617031, “Development of a BCL-xL and BCL-2 dual degrader with improved anti-leukemic activity,” (Nature Communications, 2021).
